The values that follow come from EP4782008A1 (priority 2023, dated 2025).

Data set [1] is described as follows: Pharmacokinetics following single oral administration. The following applies: for AUC(0-inf) / peak plasma drug concentration: empty stomach. It counts as in vivo, healthy Chinese subjects. On the procedure: Trial design: single-center, randomized, double-blind, placebo-controlled, dose-escalation, single administration. Number of subjects: Planned enrollment: 52 subjects, Final analysis: 51 subjects.
• Specifications: 0.5 mg/tablet, 1 mg/tablet, 2 mg/tablet, prepared according to the method of Example 1; • Dose: 0.5 mg, 1 mg, 2 mg, 4 mg, 8 mg, 12 mg. • Administration method: Single-dose, taken with an appropriate amount of water (240 mL).
Evaluation indicators of pharmacokinetic parameters: Time to peak (Tmax), peak concentration (Cmax), area under the plasma concentration time curve from 0 to t (AUC0-t), area under the plasma concentration time curve from 0 to infinity (AUC0-∞), elimination rate constant (λz), half-life period (t1/2), total clearance/bioavailability (CL/F), apparent volume of distribution/bioavailability (Vd/F).
Pharmacokinetic analysis: Pharmacokinetic parameters were calculated using the non-compartmental analysis (NCA) and Phoenix WinNonlin 7.0 data analysis software. Descriptive statistical analysis was performed on pharmacokinetic parameters, providing the number of subjects, arithmetic mean, standard deviation, minimum, median, maximum, and coefficient of variation (CV). Tmax was expressed as median (minimum - maximum). AUC and Cmax belong to a log-normal distribution. The geometric mean was also provided. The relationship between administered dose and drug plasma exposure was evaluated by plotting scatter plots of log-transformed pharmacokinetic parameters (AUC and Cmax) in relation to log dose. Furthermore, the Power model method was used to further explore the linear analysis of administered dose and drug plasma exposure.
A single dose of the tablets of the compound of formula (I) was administered orally to healthy volunteers on empty stomach. […] When the administered doses were 1 mg, 2 mg, 4 mg, 8 mg, and 12 mg, the peak plasma drug concentrations were 1.19 ng/mL, 2.43 ng/mL, 8.61 ng/mL, 16.4 ng/mL, and 23.5 ng/mL, respectively, and the AUC0-∞ were 14.7 h·ng/mL, 29.8 h·ng/mL, 69.4 h·ng/mL, 135 h·ng/mL, and 220 h·ng/mL, respectively. […] Within the dose range of 1 mg-12 mg, Cmax and AUC0-∞ increased with increasing administered dose, and the increase ratio in AUC0-∞ was basically consistent with the dose increase ratio. The inter-individual variability of plasma drug exposure is around 30%.

The conditions of data set [2]: background statement; cited from earlier work.
Another data set deals with hERG (Homo sapiens, UniProt Q12809). To be noted: background statement; cited from earlier work.
Chain of hERG (Q12809 whole entry): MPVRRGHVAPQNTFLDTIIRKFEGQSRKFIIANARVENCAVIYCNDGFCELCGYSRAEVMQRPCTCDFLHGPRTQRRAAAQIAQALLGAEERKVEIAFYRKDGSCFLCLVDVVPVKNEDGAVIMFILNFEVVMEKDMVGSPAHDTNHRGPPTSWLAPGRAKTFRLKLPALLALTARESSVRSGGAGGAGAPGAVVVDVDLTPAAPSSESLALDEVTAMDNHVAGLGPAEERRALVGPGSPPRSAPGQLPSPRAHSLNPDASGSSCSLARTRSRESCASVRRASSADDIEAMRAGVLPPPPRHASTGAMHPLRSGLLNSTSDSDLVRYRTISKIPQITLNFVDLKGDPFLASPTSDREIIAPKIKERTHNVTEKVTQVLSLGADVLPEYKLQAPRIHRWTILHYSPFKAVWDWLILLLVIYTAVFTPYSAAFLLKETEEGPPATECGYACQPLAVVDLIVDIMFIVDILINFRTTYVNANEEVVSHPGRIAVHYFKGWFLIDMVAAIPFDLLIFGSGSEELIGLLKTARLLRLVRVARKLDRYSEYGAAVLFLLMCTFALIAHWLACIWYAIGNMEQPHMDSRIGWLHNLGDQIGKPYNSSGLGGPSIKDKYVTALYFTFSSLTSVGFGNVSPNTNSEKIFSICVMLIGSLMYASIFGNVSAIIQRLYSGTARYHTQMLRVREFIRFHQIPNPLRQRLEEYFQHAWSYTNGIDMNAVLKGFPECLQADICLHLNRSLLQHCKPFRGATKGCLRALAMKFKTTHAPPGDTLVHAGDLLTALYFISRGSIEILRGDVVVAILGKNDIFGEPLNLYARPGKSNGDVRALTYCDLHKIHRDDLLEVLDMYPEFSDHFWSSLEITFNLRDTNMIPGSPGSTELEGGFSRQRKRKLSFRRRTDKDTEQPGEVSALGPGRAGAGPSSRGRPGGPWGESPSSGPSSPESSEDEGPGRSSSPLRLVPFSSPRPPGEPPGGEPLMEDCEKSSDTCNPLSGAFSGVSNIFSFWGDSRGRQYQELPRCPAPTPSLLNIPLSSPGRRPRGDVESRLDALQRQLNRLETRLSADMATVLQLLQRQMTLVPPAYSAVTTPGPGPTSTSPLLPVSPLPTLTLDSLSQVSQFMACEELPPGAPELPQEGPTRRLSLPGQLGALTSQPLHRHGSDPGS
The conditions of data set [3]: background statement; cited from earlier work. This is another data set of the same source.
For data set [4] the following is noted: background statement; cited from earlier work. This is another data set of the same source.

In the case of `COc1cc2c(cc1OC)C(=O)C(CC1(F)CCN(Cc3ccccc3F)CC1)C2` (stereo not shown) [compound of formula (I), 2-(4-fluoro-(1-(2-fluorobenzyl))piperidin-4-yl-methyl)-5,6-dimethoxy-2,3-dihydro-1-indanone], the AUC(0-inf) (commonly the area under the concentration-time curve extrapolated to infinity) in data set [1] (human, plasma, single oral dose 1 mg) is 14.7 ng·h/mL; in data set [1] (human, plasma, single oral dose 2 mg), 29.8 ng·h/mL; in data set [1] (human, plasma, single oral dose 4 mg), 69.4 ng·h/mL; in data set [1] (human, plasma, single oral dose 8 mg) it was 135 ng·h/mL; in data set [1] (human, plasma, single oral dose 12 mg), 220 ng·h/mL. Also, the half-life (in general, the time needed for the level to fall by half in the phase considered) in data set [1] (human, plasma, single oral dose of tablets on empty stomach, range over dose groups, read-out: mean plasma drug elimination half-life period) is 14.2 to 32.1 h. Besides, in data set [1] (single oral dose), the “inter-individual variability of plasma drug exposure” value was “around 30%”. Moreover, the “peak plasma drug concentration” value in data set [1] (single oral dose 1 mg) is 1.19 ng/mL; in data set [1] (single oral dose 2 mg), 2.43 ng/mL; in data set [1] (single oral dose 4 mg), 8.61 ng/mL; in data set [1] (single oral dose 8 mg), 16.4 ng/mL; in data set [1] (single oral dose 12 mg), 23.5 ng/mL. Further, the “drug concentration in brain tissue relative to the plasma drug concentration” value in data set [2] is on record as 4.4 times. The hERG toxicity result at hERG is reported as “no”. Further, the genetic toxicity result in data set [3] is “no”. Moreover, the oral bioavailability result in data set [4] is recorded as “high”.
